{"source": "paper doi:10.1101/2025.03.03.641126v1", "about": "(bioRxiv, 2025)", "test_system": "Panc354 and MetPO1 cells", "test": "Flow cytometry for CD133 after combination treatment", "type": "cell-based, human", "conditions": "representative cytometry plot, JM#21 10μM, Gem 1μM", "data": [{"smiles": "Nc1ccn([C@@H]2O[C@H](CO)[C@@H](O)C2(F)F)c(=O)n1", "note": "[gemcitabine]", "values": [{"measurement": "CD133 - PE positive cells", "result": 14.5, "unit": "%"}]}]}
